In PubChem BioAssay AID330 (DTP/NCI, 2004):
Where “and” joins values, the source holds several entries; their conditions need not be identical. Equal values may be shown once. Toxic doses and inconclusive results are not listed. Rule for the calls: active = survival T/C of 150% or more; inactive = T/C below 125% in these data.

Test system: P388 leukemia ip, CD2F1 mice, survival T/C
Test: NCI In Vivo Anticancer Drug Screen. Data for tumor model P388 Leukemia (intraperitoneal) in CD2F1 (CDF1) mice
Settings: endpoint: median survival time, higher = longer survival
Outline: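 Mice carrying the transplanted tumor received test compound or vehicle. Survival was recorded in each group, and the value is the treated-group measurement divided by that of the vehicle-treated control group.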

[1] = dose: 100.0 mg/kg/injection, schedule: Q04DX002 (ip), vehicle: Klucel (hydroxypropylcellulose) (HPC)
[2] = dose: 200.0 mg/kg/injection, schedule: Q04DX002 (ip), vehicle: Klucel (hydroxypropylcellulose) (HPC)
[3] = dose: 400.0 mg/kg/injection, schedule: Q04DX002 (ip), vehicle: Klucel (hydroxypropylcellulose) (HPC)

Measured: T/C

CC1=C(C(=O)Nc2ccccc2Cl)C(c2cccc([N+](=O)[O-])c2)C(C(=O)Nc2ccccc2Cl)=C(C)N1
inactive: dose: 15.0 mg/kg/injection, schedule: Q01DX005 (ip), vehicle: Klucel (hydroxypropylcellulose) (HPC) 93 % of control | dose: 30.0 mg/kg/injection, schedule: Q01DX005 (ip), vehicle: Klucel (hydroxypropylcellulose) (HPC) 90 % of control | dose: 60.0 mg/kg/injection, schedule: Q01DX005 (ip), vehicle: Klucel (hydroxypropylcellulose) (HPC) 88 % of control

CCC(=O)C(C)C1(C(=O)OC)NC(=S)NC(=O)C1C#N (stereo not given)
inactive: dose: 7.5 mg/kg/injection, schedule: Q01DX005 (ip), vehicle: saline with Tween-80 102 % of control | dose: 15.0 mg/kg/injection, schedule: Q01DX005 (ip), vehicle: saline with Tween-80 99 % of control | dose: 30.0 mg/kg/injection, schedule: Q01DX005 (ip), vehicle: saline with Tween-80 103 % of control

O=S(c1ccccc1)c1ccccc1C(O)(C(F)(F)F)C(F)(F)F (stereo not given)
inactive: [1] 96 % of control | [2] 100 % of control | [3] 101 % of control

COc1cc2ccc3c4cc(OC)c(OC)cc4c[n+](C)c3c2cc1O
inactive: dose: 50.0 mg/kg/injection, schedule: Q04DX009 (ip), vehicle: Klucel (hydroxypropylcellulose) (HPC) 117 % of control | dose: 100.0 mg/kg/injection, schedule: Q04DX009 (ip), vehicle: Klucel (hydroxypropylcellulose) (HPC) 122 % of control

CC1=C(C(=O)CC(=O)C(=O)Nc2ccc(Cl)cc2Cl)Sc2ccccc2N1
inactive: dose: 60.0 mg/kg/injection, schedule: Q01DX005 (ip), vehicle: saline with Tween-80 100 % of control | dose: 120.0 mg/kg/injection, schedule: Q01DX005 (ip), vehicle: saline with Tween-80 100 % of control

Cc1ccc(S(=O)(=O)/C=C/C(=O)c2cccs2)cc1
inactive: dose: 100.0 mg/kg/injection, schedule: Q04DX002 (ip), vehicle: saline 99 % of control | dose: 200.0 mg/kg/injection, schedule: Q04DX002 (ip), vehicle: saline 100 % of control | dose: 400.0 mg/kg/injection, schedule: Q04DX002 (ip), vehicle: saline 107 % of control

CC1=C(C2CO2)C(=O)C(C)=C(C2CO2)C1=O (stereo not given)
inactive: dose: 1.56 mg/kg/injection, schedule: Q04DX002 (ip), vehicle: Klucel (hydroxypropylcellulose) (HPC) 95 % of control | dose: 3.12 mg/kg/injection, schedule: Q04DX002 (ip), vehicle: Klucel (hydroxypropylcellulose) (HPC) 93 % of control | dose: 6.25 mg/kg/injection, schedule: Q04DX002 (ip), vehicle: Klucel (hydroxypropylcellulose) (HPC) 88 % of control | dose: 12.5 mg/kg/injection, schedule: Q04DX002 (ip), vehicle: Klucel (hydroxypropylcellulose) (HPC) 89 % of control

CC1CN(C(C)(C)C)CO1 (stereo not given)
inactive: dose: 12.5 mg/kg/injection, schedule: Q01DX005 (ip), vehicle: saline 112 % of control and 88 % of control | dose: 25.0 mg/kg/injection, schedule: Q01DX005 (ip), vehicle: saline 107 % of control | dose: 50.0 mg/kg/injection, schedule: Q01DX005 (ip), vehicle: saline 114 % of control and 117 % of control and 119 % of control | dose: 100.0 mg/kg/injection, schedule: Q01DX005 (ip), vehicle: saline 119 % of control and 120 % of control | dose: 200.0 mg/kg/injection, schedule: Q01DX005 (ip), vehicle: saline 107 % of control

COc1ccc(C2=C(Cl)C(=O)N(c3ccc(Cl)cc3)C(=O)C2(Cl)Cl)cc1
inactive: [1] 101 % of control | [2] 94 % of control | [3] 97 % of control

c1ccc2c3c([nH]c2c1)CCN1CCN(CCc2ccncc2)CC31 (stereo not given)
inactive: [1] 100 % of control | [2] 101 % of control | [3] 96 % of control

CC1=C(c2ccccc2)OS(=O)(=O)CC1N(C)C (stereo not given)
inactive: dose: 50.0 mg/kg/injection, schedule: Q01DX005 (ip), vehicle: saline with Tween-80 99 % of control | dose: 100.0 mg/kg/injection, schedule: Q01DX005 (ip), vehicle: saline with Tween-80 99 % of control | dose: 200.0 mg/kg/injection, schedule: Q01DX005 (ip), vehicle: saline with Tween-80 98 % of control

COc1cc(CCC(=O)O)on1
inactive: dose: 50.0 mg/kg/injection, schedule: Q01DX009 (ip), vehicle: saline 101 % of control | dose: 100.0 mg/kg/injection, schedule: Q01DX009 (ip), vehicle: saline 109 % of control | dose: 200.0 mg/kg/injection, schedule: Q01DX009 (ip), vehicle: saline 108 % of control

NNC12CCC(c3ccccc31)c1ccccc12
inactive: dose: 50.0 mg/kg/injection, schedule: Q04DX003 (ip), vehicle: saline with Tween-80 95 % of control | dose: 100.0 mg/kg/injection, schedule: Q04DX003 (ip), vehicle: saline with Tween-80 110 % of control | dose: 200.0 mg/kg/injection, schedule: Q04DX003 (ip), vehicle: saline with Tween-80 110 % of control
